Legend:
[1] = tested on: renal carcinoma cells (786-O); test: In vitro cytotoxicity, CellTiter-Glo 96 h, 786-O; details: Homo sapiens, 786-0, read-out: Cytotoxic potency (IC50 class), 786-O
Protocol: (§2) In vitro potency was assessed on multiple cancer cell lines. All cell lines were authenticated by STR profiling at IDEXX Bioresearch and cultured for no more than 2 months after resuscitation. Cells cultured in log-phase growth were seeded for 24 hours in 96-well plates containing 150 μl RPMI 1640 supplemented with 20% FBS. Serial dilutions of antibody-drug conjugates in cell culture media were prepared at 4× working concentrations, and 50 μl of each dilution was added to the 96-well plates. Following addition of test articles, cells were incubated with test articles for 4 days at 37° C. After 96 hours, growth inhibition was assessed by CellTiter-Glo® (Promega, Madison, Wis.) and luminescence was measured on a plate reader.
(§3) Cell viability was determined by CellTiter-Glo staining after 96 h exposure to ADC.

[2] = tested on: B-lymphocyte cancer cells (U266); test: In vitro cytotoxicity, CellTiter-Glo 96 h, U266; details: Homo sapiens, U-266, read-out: Cytotoxic potency as free drug, IC50, U266
Protocol: as §2
(§4) Cell viability was determined by CellTiter-Glo staining after 96 h exposure to ADC. […] Ag1 is an antibody targeting a ubiquitous and readily internalizable antigen on cancer cells, Ag2 is cAC10 antibody targeting CD30(+) cancer cells, Ag3 is h1F6 antibody targeting CD70(+) cancer cells, Ag4 is hMEM102 antibody targeting CD48(+) cancer cells, Ag5 is h20F3 antibody targeting NTB-A expressing cancer cells, and h00 is a non-binding control antibody.

[3] = tested on: acute promyelocytic leukemia cells (HL-60); test: In vitro cytotoxicity, CellTiter-Glo 96 h, HL-60; details: Homo sapiens, HL-60, read-out: Cytotoxic potency (IC50 class), HL-60
Protocol: as §2, §4

[4] = tested on: B-lymphocyte cancer cells (SU-DHL-4); test: In vitro cytotoxicity, CellTiter-Glo 96 h, SU-DHL-4; details: Homo sapiens, SU-DHL-4, read-out: Cytotoxic potency as free drug, IC50, SU-DHL-4
Protocol: as §2, §4

[5] = tested on: Hodgkin's lymphoma cells (L540cy); test: In vitro cytotoxicity, CellTiter-Glo 96 h, L540cy; details: read-out: Cytotoxic potency (IC50 class), L540cy
Protocol: as §2, §3

[6] = tested on: multiple myeloma cells (MM.1R); test: In vitro cytotoxicity, CellTiter-Glo 96 h, MM.1R; details: read-out: Cytotoxic potency (IC50 class), MM.1R
Protocol: as §2, §4

[7] = tested on: Burkitt's lymphoma cells (Ramos); test: In vitro cytotoxicity, CellTiter-Glo 96 h, Ramos; details: Homo sapiens, read-out: Cytotoxic potency as free drug, IC50, Ramos
Protocol: as §2, §3

[8] = tested on: acute myeloid leukemia cells (MOLM13); test: In vitro cytotoxicity, CellTiter-Glo 96 h, MOLM13; details: Homo sapiens, MOLM-13, read-out: Cytotoxic potency as free drug, IC50, MOLM13
Protocol: as §2, §3

[9] = tested on: multiple drug resistant acute promyelocytic leukemia cells (HL-60/RV); test: In vitro cytotoxicity, CellTiter-Glo 96 h, HL60/RV; details: Homo sapiens, HL-60, read-out: Cytotoxic potency (IC50 class), HL60/RV
Protocol: as §2, §3

[10] = tested on: melanoma cells (SK-MEL-5); test: In vitro cytotoxicity, CellTiter-Glo 96 h, SK-MEL-5; details: Homo sapiens, SK-MEL-5, read-out: Cytotoxic potency as free drug, IC50, SK-MEL-5
Protocol: as §2, §4

[11] = tested on: pancreatic cancer cells (BxPC3); test: In vitro cytotoxicity, CellTiter-Glo 96 h, BxPC3; details: Homo sapiens, BXPC-3, read-out: Cytotoxic potency (IC50 class), BxPC3
Protocol: as §2, §3

[12] = tested on: CD30+ parental DEL lymphoma cell line; test: In vitro cytotoxicity, CellTiter-Glo 96 h, DEL; format: cell-based; details: Table 2, CD30+ parental DEL
Protocol: (§1) The parental DEL lymphoma cell line was cultured in the presence of brentuximab vedotin to induce over-expression of the MDR phenotype, resulting in the DEL brentuximab vedotin resistant line (DEL-BVR). Brentuximab vedotin, which is Ag2-vc-MMAE (DAR=4) was included as a control. Ex_4-1 refers to MP-PEG4-VKG-7-MAD-MDCPT.

[13] = tested on: CD30/MDR+ DEL-BVR cell line (DEL brentuximab vedotin resistant); test: In vitro cytotoxicity, CellTiter-Glo 96 h, DEL-BVR; format: cell-based; details: Table 2, CD30/MDR+ DEL-BVR
Protocol: as §1

[14] = 1000 ng/mL, relative to untreated cells
[15] = DAR in parenthesis of label, 96 h

Compound	IC50 [1] [nM]	IC50 [2] [nM]	IC50 [3] [nM]	IC50 [4] [nM]	IC50 [5] [nM]	IC50 [6] [nM]	IC50 [7] [nM]	IC50 [8] [nM]	IC50 [9] [nM]	IC50 [10] [nM]	IC50 [11] [nM]	percent cells remaining at highest concentration tested, DEL [12, 14]	IC50, DEL [12, 15] [µg/mL]	percent cells remaining at highest concentration tested, DEL-BVR [13, 14]	IC50, DEL-BVR [13, 15] [µg/mL]
CC[C@@]1(O)C(=O)OCc2c1cc1n(c2=O)Cc2c-1nc1cc3c(cc1c2CN(CCN)CCO)OCO3 [Compound 5q]	10 to 100	10 to 100	100 to 1000	10 to 100	10 to 100	10 to 100	10 to 100	10 to 100	100 to 1000	100 to 1000	100 to 1000	–	–	–	–
CC[C@@]1(O)C(=O)OCc2c1cc1n(c2=O)Cc2c-1nc1cc3c(cc1c2CC(C)C)OCO3 [Compound 6f]	1 to 10	1 to 10	10 to 100	1 to 10	1 to 10	1 to 10	1 to 10	1 to 10	1 to 10	1 to 10	1 to 10	–	–	–	–
CC[C@@]1(O)C(=O)OCc2c1cc1n(c2=O)Cc2c-1nc1cc3c(cc1c2CNc1ccccc1)OCO3 [Compound 5b]	1 to 10	1 to 10	10 to 100	0.1 to 1	0.1 to 1	1 to 10	0.1 to 1	10 to 100	1 to 10	1 to 10	1 to 10	–	–	–	–
CC[C@@]1(O)C(=O)OCc2c1cc1n(c2=O)Cc2c-1nc1cc3c(cc1c2CNCc1ccccc1)OCO3 [Compound 5j]	1 to 10	1 to 10	10 to 100	1 to 10	1 to 10	1 to 10	1 to 10	1 to 10	1 to 10	1 to 10	1 to 10	–	–	–	–
CC[C@@]1(O)C(=O)OCc2c1cc1n(c2=O)Cc2c-1nc1cc3c(cc1c2C1CC1)OCO3 [Compound 6m]	0.1 to 1	1 to 10	10 to 100	0.1 to 1	0.1 to 1	0.1 to 1	0.1 to 1	1 to 10	1 to 10	1 to 10	1 to 10	–	–	–	–
CCCCCc1c2c(nc3cc4c(cc13)OCO4)-c1cc3c(c(=O)n1C2)COC(=O)[C@]3(O)CC [Compound 6h]	0.1 to 1	1 to 10	10 to 100	0.1 to 1	1 to 10	1 to 10	0.1 to 1	10 to 100	10 to 100	1 to 10	1 to 10	–	–	–	–
CC[C@@]1(O)C(=O)OCc2c1cc1n(c2=O)Cc2c-1nc1cc(F)c(C)c3c1c2[C@@H](NC(=O)CO)CC3 [Compound 8a]	1 to 10	10 to 100	100 to 1000	1 to 10	1 to 10	1 to 10	1 to 10	10 to 100	10 to 100	10 to 100	10 to 100	–	–	–	–
CC[C@@]1(O)C(=O)OCc2c1cc1n(c2=O)Cc2c-1nc1cc3c(cc1c2CN(C)C(=O)CN)OCO3 [Compound 4c]	10 to 100	10 to 100	100 to 1000	10 to 100	10 to 100	10 to 100	1 to 10	1 to 10	100 to 1000	100 to 1000	100 to 1000	–	–	–	–
CC[C@@]1(O)C(=O)OCc2c1cc1n(c2=O)Cc2c-1nc1cc3c(cc1c2CN1CCN(C)CC1)OCO3 [Compound 5h]	1 to 10	10 to 100	10 to 100	1 to 10	1 to 10	1 to 10	1 to 10	1 to 10	10 to 100	10 to 100	10 to 100	–	–	–	–
CCCc1c2c(nc3cc4c(cc13)OCO4)-c1cc3c(c(=O)n1C2)COC(=O)[C@]3(O)CC [Compound 6a]	1 to 10	1 to 10	1 to 10	0.1 to 1	0.1 to 1	1 to 10	0.1 to 1	1 to 10	1 to 10	1 to 10	1 to 10	–	–	–	–
CC[C@@]1(O)C(=O)OCc2c1cc1n(c2=O)Cc2c-1nc1cc3c(cc1c2CNCC1CCNCC1)OCO3 [Compound 5u]	10 to 100	10 to 100	100 to 1000	10 to 100	10 to 100	10 to 100	1 to 10	10 to 100	100 to 1000	10 to 100	10 to 100	–	–	–	–
CC[C@@]1(O)C(=O)OCc2c1cc1n(c2=O)Cc2c-1nc1cc3c(cc1c2CO)OCO3 [Compound 8c]	1 to 10	1 to 10	10 to 100	0.1 to 1	0.1 to 1	1 to 10	0.1 to 1	1 to 10	1 to 10	1 to 10	1 to 10	–	–	–	–
Brentuximab vedotin [Ag2-vcMMAE (4), reference compound]	–	–	–	–	–	–	–	–	–	–	–	(1) percent	0.0005	(93) percent	>1
CC[C@@]1(O)C(=O)OCc2c1cc1n(c2=O)Cc2c-1nc1cc3c(cc1c2CNc1ccc(F)cc1)OCO3 [Compound 5r]	1 to 10	1 to 10	10 to 100	1 to 10	1 to 10	1 to 10	1 to 10	10 to 100	10 to 100	1 to 10	1 to 10	–	–	–	–
